# According to the supplement of paper PMC11208160:
# Assay: recombinant UMI read abundance after kanamycin selection (control-corrected) (log10(CPM+1)); higher = more efficient recombination; extreme values may be limits of the assay; sequences stand for … in AGTGCAGAGAAAATCGGCCAGTTTTCTCTGCCTGCAGTCCGCATGCCGTGGGACCCCTTGGGTTCTAACCTGTTGCCTAGATTTATGCAGCGGACTGCCTTTCTCCCAAAGTGATAAACCGG…AGGTTGGTTTCACT; site = the 11-nt donor
# Outline: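 In Escherichia coli, a pool of donor and donor-binding-loop pairs, each with a 12-nt UMI, was tested for the IS621 bridge recombinase. Plating was on IPTG (0.07 mM) plus kanamycin, or without selection, in two replicates. Recombinant UMIs were amplified by PCR across the donor–target junction and sequenced, and counts were reported as log10(CPM+1) after averaging and control-derived scaling.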
# 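Note: IS621 bridge recombinase in Escherichia coli cells against a fixed T5 target plasmid.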
row,Sequence,recombinant UMI read abundance (log10)
1,CCACGAACATGGACCGGTTTTCCCGGTAATCCGTATTTGTC (site ACACGAACTGA),0
2,CCACGAACATGGACCGGTTTTCCCGGTAATCCGTATTTGTC (site CCACGAACTGA),0.774
3,CCACGAACATGGACCGGTTTTCCCGGTAATCCGTATTTGTC (site GCACGAACTGA),0
4,CCACGAACATGGACCGGTTTTCCCGGTAATCCGTATTTGTC (site TCACGAACTGA),0
5,CCAGCAGCATGGACCGGTTTTCCCGGTAATCCGTATTTGTC (site CCAGCAGCTGA),0.4
6,CCAGCATCATGGACCGGTTTTCCCGGTAATCCGTATTTGCT (site CCAGCATCTAG),0.0975
7,CCAGCATCATGGACCGGTTTTCCCGGTAATCCGTATTTGCT (site CGATCATCTAG),0
8,CCAGCTGCATGGACCGGTTTTCCCGGTAATCCGTATTTGCC (site CCAGCTGCTGG),1.26
9,CCAGGACCATGGACCGGTTTTCCCGGTAATCCGTATTTGGG (site CAAGGACCTCC),0.0304
10,CCAGGACCATGGACCGGTTTTCCCGGTAATCCGTATTTGGG (site CCAGGACCTCC),0.00761
11,CCAGGACCATGGACCGGTTTTCCCGGTAATCCGTATTTGGG (site CGAGGACCTCC),0
12,CCAGGACCATGGACCGGTTTTCCCGGTAATCCGTATTTGGG (site CTAGGACCTCC),0.00678
13,CCAGGTCCATGGACCGGTTTTCCCGGTAATCCGTATTTGCA (site CCAGGTCCTTG),0.421
14,CCAGGTCCATGGACCGGTTTTCCCGGTAATCCGTATTTGCA (site CCCGGTCCTTG),0
15,CCAGGTCCATGGACCGGTTTTCCCGGTAATCCGTATTTGCA (site CCGGGTCCTTG),0
16,CCAGGTCCATGGACCGGTTTTCCCGGTAATCCGTATTTGCA (site CCTGGTCCTTG),0

row,Sequence,recombinant UMI read abundance (log10)
1,CCAGGTGCATGGACCGGTTTTCCCGGTAATCCGTATTTGAG (site CCAGGTGCTAT),0.721
2,CCAGGTGCATGGACCGGTTTTCCCGGTAATCCGTATTTGAG (site CCAGGTGCTCT),0.843
3,CCAGGTGCATGGACCGGTTTTCCCGGTAATCCGTATTTGAG (site CCAGGTGCTGT),0
4,CCAGGTGCATGGACCGGTTTTCCCGGTAATCCGTATTTGAG (site CCAGGTGCTTT),0.424
5,CCAGGTTCATGGACCGGTTTTCCCGGTAATCCGTATTTGAT (site CCAGGTACTAT),0.00235
6,CCAGGTTCATGGACCGGTTTTCCCGGTAATCCGTATTTGAT (site CCAGGTCCTAT),0.00776
7,CCAGGTTCATGGACCGGTTTTCCCGGTAATCCGTATTTGAT (site CCAGGTGCTAT),0
8,CCAGGTTCATGGACCGGTTTTCCCGGTAATCCGTATTTGAT (site CCAGGTTCTAT),0.602
9,CCAGGTTCATGGACCGGTTTTCCCGGTAATCCGTATTTGTC (site CCAGGTTCTGA),2.24
10,CCAGTCACATGGACCGGTTTTCCCGGTAATCCGTATTTGGG (site CAAGTCACTCC),0.0155
11,CCAGTCACATGGACCGGTTTTCCCGGTAATCCGTATTTGGG (site CCAGTCACTCC),0.026
12,CCAGTCACATGGACCGGTTTTCCCGGTAATCCGTATTTGGG (site CGAGTCACTCC),0.00845
13,CCAGTCACATGGACCGGTTTTCCCGGTAATCCGTATTTGGG (site CTAGTCACTCC),0.0251
14,CCAGTTGCATGGACCGGTTTTCCCGGTAATCCGTATTTGAT (site CCAGATGCTAT),0.00647
15,CCAGTTGCATGGACCGGTTTTCCCGGTAATCCGTATTTGAT (site CCAGCTGCTAT),0.249
16,CCAGTTGCATGGACCGGTTTTCCCGGTAATCCGTATTTGAT (site CCAGGTGCTAT),0.00995
